# Data published in patent US20100298252A1, “METHODS AND COMPOSITIONS FOR OPHTHALMIC TREATMENT OF FUNGAL AND BACTERIAL INFECTIONS” (priority 2004, published 2010).
# Legend:
# Enterococcus faecalis = experiment: Antibiotic resistance profile by disc diffusion; type: cell-based; parameters: key: R = resistant; I = intermediate; S = sensitive; conditions: disc diffusion on MHA
# Method: (§1) The organisms of this study were isolated from human burn patients. They included strains of methicillin resistant Staphylococcus aureus, and vancomycin resistant strains of Pseudomonas aeruginosa and Enterococcus faecalis. The bacterial isolates were propagated in or on Brain Heart Infusion broth (BHI), Mueller-Hinton Broth (MHB), blood agar (BA), Mueller-Hinton agar (MHA), enterococcus agar (EA), or 2× nutrient agar (2×NA).
# (§2) Antibiotic resistance profiles were determined by the disc diffusion method on MHA (5).
# Pseudomonas aeruginosa = experiment: Antibiotic resistance profile by disc diffusion; type: cell-based; parameters: key: R = resistant; I = intermediate; S = sensitive; conditions: disc diffusion on MHA
# Method: as §1, §2
# Staphylococcus aureus = experiment: Antibiotic resistance profile by disc diffusion; type: cell-based; parameters: key: R = resistant; I = intermediate; S = sensitive; conditions: disc diffusion on MHA
# Method: as §1, §2
# [1] = tested on: Candidia albicans ATCC 90028; experiment: Antifungal MIC 50 / MIC 90 alone and combined with Tricide; type: cell-based, Candida albicans;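 note: MIC 50 and MIC 90 values are means, and the percent decrease is the drop in MIC when the antifungal is combined with Tricide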
# [2] = tested on: Paecilomyces variotti ATCC 36257; experiment: as above; type: cell-based
# Aspergillus sp. = experiment: as above; type: cell-based
# Fusarium sp. 1 = experiment: microbe, parasite or virus in culture; type: cell-based;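 note: mean MIC 50 and MIC 90 values against fungal isolates, with percent decrease in MIC when the antifungal is combined with Tricide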
# Fusarium sp. 2 = experiment: microbe, parasite or virus in culture; type: cell-based
# Fusarium sp. 3 = experiment: microbe, parasite or virus in culture; type: cell-based
# Penicillium sp. = experiment: Antifungal MIC 50 / MIC 90 alone and combined with Tricide; type: cell-based
# Cladosporium sp. = experiment: as above; type: cell-based
# Curvularia sp. = experiment: as above; type: cell-based;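 note: antifungal MIC 50 and MIC 90 values against fungal isolates, with percent figures expressing how much the MIC fell once Tricide was added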
# [3] = Candida albicans, ATCC90028, Candidia albicans ATCC 90028, antifungal alone
# [4] = Paecilomyces variotti ATCC36257
# [5] = Paecilomyces variotti, Tricide […]
# [6] = Aspergillus sp., Tricide 200 ug/ml
# [7] = Aspergillus, Aspergiullus sp., antifungal alone
# [8] = Fusarium sp. 1, Tricide 540 ug/ml
# [9] = Fusarium sp. 1, antifungal alone
# [10] = Curvilaria sp., Tricide 200 ug/ml
# [11] = Curvularia sp., antifungal alone
compound,measurement,setting,value
"Cc1noc(NS(=O)(=O)c2ccc(N)cc2)c1C [G, sulfisoxazole]",Antibiotic resistance profile,Enterococcus faecalis,R
same,Antibiotic resistance profile,Pseudomonas aeruginosa,R
same,Antibiotic resistance profile,Staphylococcus aureus,S
"NC[C@H]1O[C@H](O[C@H]2[C@H](O)[C@@H](O[C@H]3O[C@H](CO)[C@@H](O)[C@H](N)[C@H]3O)[C@H](N)C[C@@H]2N)[C@H](O)[C@@H](O)[C@@H]1O [K, kanamycin]",Antibiotic resistance profile,Enterococcus faecalis,R
same,Antibiotic resistance profile,Pseudomonas aeruginosa,R
same,Antibiotic resistance profile,Staphylococcus aureus,R
"CC(=O)N1CCN(c2ccc(OCC3COC(Cn4ccnc4)(c4ccc(Cl)cc4Cl)O3)cc2)CC1 (stereo not shown) [Ketoconazole, ketoconazole]",MIC50,[1]; [3],0.0313 µg/mL
same,MIC90,[1]; [3],> 1 µg/mL
same,% decrease MIC 50,"[1]; Candida albicans, Tricide […]",100%
same,% decrease MIC 90,"[1]; Candida albicans, Tricide […]",100%
same,MIC 50 combined with Tricide,"[1]; Candida albicans, Tricide […]",0 µg/mL
same,Summary % reduction in MIC 50 using Tricide,[1]; Candidia albicans ATCC 90028,100%
same,Summary % reduction in MIC 90 using Tricide,[1]; Candidia albicans ATCC 90028,100%
same,Summary % reduction in MIC 50 using Tricide,[2]; [4],100%
same,Summary % reduction in MIC 90 using Tricide,[2]; [4],75%
same,% decrease MIC 50,[2]; [5],100%
same,% decrease MIC 90,[2]; [5],75%
same,MIC 50 combined with Tricide,[2]; [5],0 µg/mL
same,MIC 90 combined with Tricide,[2]; [5],0.25 µg/mL
same,MIC50,"[2]; Paecilomyces, ATCC36257",0.0382 µg/mL
same,MIC90,"[2]; Paecilomyces, ATCC36257",1 µg/mL
same,% decrease MIC 50,Aspergillus sp.; [6],87.5%
same,% decrease MIC 90,Aspergillus sp.; [6],95.8%
same,MIC 50 combined with Tricide,Aspergillus sp.; [6],0.25 µg/mL
same,MIC 90 combined with Tricide,Aspergillus sp.; [6],0.5 µg/mL
same,MIC50,Aspergillus sp.; [7],2 µg/mL
same,MIC90,Aspergillus sp.; [7],12 µg/mL
same,Summary % reduction in MIC 50 using Tricide,Aspergillus sp.; Aspergiullus sp.,87.5%
same,Summary % reduction in MIC 90 using Tricide,Aspergillus sp.; Aspergiullus sp.,95.8%
same,Summary % reduction in MIC 50 using Tricide,Fusarium sp. 1; Fasarium sp. 1,>99.9%-100%
same,Summary % reduction in MIC 90 using Tricide,Fusarium sp. 1; Fasarium sp. 1,99.9%-100%
same,% decrease MIC 50,Fusarium sp. 1; [8],>99.9-100% ^
same,% decrease MIC 90,Fusarium sp. 1; [8],99.9-100%^
same,MIC 90 combined with Tricide,Fusarium sp. 1; [8],0 to 0.05 µg/mL
same,MIC50,Fusarium sp. 1; [9],> 128 µg/mL
same,MIC90,Fusarium sp. 1; [9],> 128 µg/mL
same,Summary % reduction in MIC 50 using Tricide,Fusarium sp. 2,>99.5%-100%
same,Summary % reduction in MIC 90 using Tricide,Fusarium sp. 2,99.9%-100%
same,% decrease MIC 50,Fusarium sp. 2; Tricide 540 ug/ml,>99.5-100% ^
same,% decrease MIC 90,Fusarium sp. 2; Tricide 540 ug/ml,>99.9-100% ^
same,MIC50,Fusarium sp. 2; antifungal alone,11.2 µg/mL
same,MIC90,Fusarium sp. 2; antifungal alone,64 µg/mL
same,Summary % reduction in MIC 50 using Tricide,Fusarium sp. 3,100%
same,Summary % reduction in MIC 90 using Tricide,Fusarium sp. 3,100%
same,% decrease MIC 50,Fusarium sp. 3; Tricide 540 ug/ml,100%
same,% decrease MIC 90,Fusarium sp. 3; Tricide 540 ug/ml,100%
same,MIC 50 combined with Tricide,Fusarium sp. 3; Tricide 540 ug/ml,0 µg/mL
same,MIC 90 combined with Tricide,Fusarium sp. 3; Tricide 540 ug/ml,0 µg/mL
same,MIC50,Fusarium sp. 3; antifungal alone,> 128 µg/mL
same,MIC90,Fusarium sp. 3; antifungal alone,> 128 µg/mL
same,Summary % reduction in MIC 50 using Tricide,Penicillium sp.,100%
same,Summary % reduction in MIC 90 using Tricide,Penicillium sp.,100%
same,% decrease MIC 50,Penicillium sp.; Tricide 200 ug/ml,100%
same,% decrease MIC 90,Penicillium sp.; Tricide 200 ug/ml,100%
same,MIC 50 combined with Tricide,Penicillium sp.; Tricide 200 ug/ml,0 µg/mL
same,MIC 90 combined with Tricide,Penicillium sp.; Tricide 200 ug/ml,0 µg/mL
same,MIC50,Penicillium sp.; antifungal alone,0.181 µg/mL
same,MIC90,Penicillium sp.; antifungal alone,0.5 µg/mL
same,Summary % reduction in MIC 50 using Tricide,Cladosporium sp.,75%
same,Summary % reduction in MIC 90 using Tricide,Cladosporium sp.,94%
same,% decrease MIC 50,Cladosporium sp.; Tricide 200 ug/ml,>75%
same,% decrease MIC 90,Cladosporium sp.; Tricide 200 ug/ml,94%
same,MIC 90 combined with Tricide,Cladosporium sp.; Tricide 200 ug/ml,0.125 µg/mL
same,MIC50,Cladosporium sp.; antifungal alone,0.5 µg/mL
same,MIC90,Cladosporium sp.; antifungal alone,2 µg/mL
same,% decrease MIC 50,Curvularia sp.; [10],96.3-100%^
same,% decrease MIC 90,Curvularia sp.; [10],74-100% ^
same,MIC 50 combined with Tricide,Curvularia sp.; [10],0 to 0.0250 µg/mL
same,MIC 90 combined with Tricide,Curvularia sp.; [10],0 to 0.4 µg/mL
same,Summary % reduction in MIC 50 using Tricide,Curvularia sp.; Curvularia sp.,96.3%-100%
same,Summary % reduction in MIC 90 using Tricide,Curvularia sp.; Curvularia sp.,74%-100%
same,MIC50,Curvularia sp.; [11],0.667 µg/mL
same,MIC90,Curvularia sp.; [11],1.56 µg/mL
